The conditions of the data set: 25 °C.

In brackets after ≈: the same amount, converted by molar mass.

By solubility is commonly meant how much of the substance goes into solution per volume. Higher therefore signals a readily soluble substance. `CCCCCCCl` yielded a solubility of 0.754 mM (≈ 91 µg/mL). As for `CC(O)CNCC(C)O` (centres undefined), the solubility is 6490 mM (≈ 865000 µg/mL). The figure for `c1ccc(NNc2ccccc2)cc1` is 1.2 mM (≈ 221 µg/mL).

For `CCCCC(=O)OC`, the solubility is 43.6 mM (≈ 5060 µg/mL). The figure for `CCCOC(=O)c1ccccc1` is 2.14 mM (≈ 351 µg/mL); for `COC(=O)c1ccc(C(=O)OC)cc1` it is 0.0978 mM (≈ 19 µg/mL). The figure for `Brc1ccc2ccccc2c1` is 0.0398 mM (≈ 8.24 µg/mL); for `Brc1cccc(Br)c1Br` it is 0.00912 mM (≈ 2.87 µg/mL); for `CCC(C)(C)Cl` it is 3.09 mM (≈ 329 µg/mL).

Regarding `Cc1cc(O)ccc1Cl`, the solubility amounted to 26.9 mM (≈ 3830 µg/mL). The figure for `CCNc1ccccc1` is 19.9 mM (≈ 2410 µg/mL); for `Nc1cccc(C(F)(F)F)c1` it is 33.9 mM (≈ 5450 µg/mL); for `CCCCCCl` it is 1.85 mM (≈ 197 µg/mL).

With `CCCNCCC`, the solubility came to 579 mM (≈ 58600 µg/mL).

The values are drawn from the OPERA property sets (Mansouri et al. 2018).
